Reference: US5750648A, “Retroviral protease inhibitors and combinations thereof” (G.D. Searle & Co., priority 1994, dated 1998)
Structures can show the parent of a compound that is named as a salt. Values belong to the compound of their own block, whether it stands above or below them.

Assays:
[1] = Identification of metabolite in blood of male rats after oral administration (LC-MS); assay type: in vivo, rat; conditions: male rats (n=5), in 0.5% methylcellulose and 0.1% polysorbate 80, blood at 0.25-4 hours
Procedure: Butaneamide, 2-[(N,N-dimethylaminoacetyl)amino]-N-[3-[[[(1,1-dimethylethyl)amino]carbonyl](3-methylbutyl)amino]-2-hydroxy-1-(phenylmethyl)propyl]-3,3-dimethyl-, [1S-[1R*(R*), 2S*]]-, as prepared in Example 1 herein, is administered to male rats (n=5) orally in water containing 0.5% methylcellulose and 0.1% polysorbate 80 in a total volume of 5 to 7 mL per kilogram. Blood samples are collected at 0.25, 0.50, 1, 2 and 4 hours. The samples for each time-point are pooled and extracted onto a 100 mg C18 solid phase extraction column (SPEC) after prior treatment with methanol to denature plasma proteins. The extract is purified by washing the SPEC with water and collected after the addition of 1% formic acid in methanol to the SPEC. Concentration of the extract is achieved by evaporation and resolubilization in a small volume of water:acetonitrile (3:1, v/v). The resolubilized extract is filtered through a 0.2μ filter and injected onto a liquid chromatograph coupled to a mass spectrometer, using a VG Trio 2 Mass Spectrometer, by means of a thermospray interface. The chromatographic separation is produced by use of a 10 cm (2×5 cm) YMC Basic column with a mobile phase of water:acetonitrile:pyridine:formic acid (545:440:10:5, by volume).

HIV protease = HIV protease (Human immunodeficiency virus type 1 group M subtype B, UniProt P04585); test: HIV protease enzyme assay (fluorescent substrate 2-aminobenzoyl-Ile-Nle-Phe(p-NO2)-Gln-ArgNH2); assay type: biochemical; conditions: concentration at which the inhibitor reduces enzyme activity by 50%; enzyme about 12.3 nanomolar, substrate about 80 μM, pH 6.4
Description: The compounds of the present invention are advantageously effective HIV protease inhibitors. Utilizing an enzyme assay as described below, the compounds set forth in the examples herein disclosed inhibited the HIV enzyme. The preferred compounds of the present invention and their calculated IC50 (the concentration at which the inhibitor compound reduces enzyme activity by 50%) values are shown in Table 2.
The enzyme method is as follows. The substrate is 2-aminobenzoyl-Ile-Nle-Phe(p-NO2)-Gln-ArgNH2. The positive control is MVT-101 (Miller, M. et al, Science, 246, 1149 (1989)). The assay buffer is 20 mM sodium phosphate, pH 6.4, 20% glycerol, 1 mM EDTA, 1 mM DTT and 0.1% CHAPS. The substrate is dissolved in DMSO, then diluted 10 fold in assay buffer. Final substrate concentration in the assay is about 80 μM. HIV protease is diluted in the assay buffer to a final enzyme concentration of about 12.3 nanomolar, based on a molecular weight of 10,780.
The final concentration of DMSO is about 14% and the final concentration of glycerol is about 18%. The test compound is dissolved in DMSO and diluted in DMSO to ten times (10×) the test concentration. Ten microliters (10 μL) of the enzyme preparation is added, the materials mixed and then the mixture is incubated at ambient temperature for 15 minutes. The enzyme reaction is initiated by the addition of 40 μL of substrate. The increase in fluorescence is monitored at 4 time points (0, 8, 16 and 24 minutes) at ambient temperature. Each assay is carried out in duplicate wells.

HIV-1 in CEM cells = test: CEM cell assay, HIV inhibition in acutely infected cells (MTT); assay type: cell-based; conditions: Human immunodeficiency virus 1, CCRF-CEM, 168 h; HIV-1 infected CEM cells, 7 days
Procedure: The effectiveness of selected compounds of the present invention were determined in the above-described enzyme assay and in a CEM cell assay. The HIV inhibition assay method of acutely infected cells is an automated tetrazolium based calorimetric assay essentially that reported by Pauwles et al, J. Virol. Methods 20, 309-321 (1988). Assays were performed in 96-well tissue culture plates. CEM cells, a CD4+ cell line, were grown in RPMI-1640 medium (Gibco) supplemented with a 10% fetal calf serum and were then treated with polybrene (2 μg/ml). An 80 μl volume of medium containing 1×10^4 cells was dispensed into each well of the tissue culture plate. To each well was added a 100 μl volume of test compound dissolved in tissue culture medium (or medium without test compound as a control) to achieve the desired final concentration and the cells were incubated at 37° C. for 1 hour. A frozen culture of HIV-1 was diluted in culture medium to a concentration of […] (TCID50=the dose of virus that infects 50% of cells in tissue culture), and a 20 μL volume of the virus sample (containing 1000 TCID50 of virus) was added to wells containing test compound and to wells containing only medium (infected control cells). Several wells received culture medium without virus (uninfected control cells). Likewise, the intrinsic toxicity of the test compound was determined by adding medium without virus to several wells containing test compound. In summary, the tissue culture plates contained the following experiments: In experiments 2 and 4 the final concentrations of test compounds were 1, 10, 100 and 500 μg/ml. Either azidothymidine (AZT) or dideoxyinosine (ddI) was included as a positive drug control. […] DMSO was added to all control wells at an appropriate concentration. Following the addition of virus, cells were incubated at 37° C. in a humidified, 5% CO2 atmosphere for 7 days. Test compounds could be added on days 0, 2 and 5 if desired. On day 7, post-infection, the cells in each well were resuspended and a 100 μl sample of each cell suspension was removed for assay. A 20 μL volume of a 5 mg/ml solution of 3-(4,5-dimethylthiazol-2-yl)-2,5-diphenyltetrazolium bromide (MTT) was added to each 100 μL cell suspension, and the cells were incubated for 4 hours at […] in a 5% CO2 environment. […] To each sample was added 100 μl of 10% sodium dodecylsulfate in 0.01N HCl to lyse the cells, and samples were incubated overnight. The absorbance at 590 nm was determined for each sample using a Molecular Devices microplate reader. Absorbance values for each set of wells is compared to assess viral control infection, uninfected control cell response as well as test compound by cytotoxicity and antiviral efficacy.

CEM cells = assay type: cell-based; design: unit not given beside the values
Procedure: The HIV inhibition assay method of acutely infected cells is an automated tetrazolium based calorimetric assay essentially that reported by Pauwles et al, J. Virol. Methods 20, 309-321 (1988). Assays were performed in 96-well tissue culture plates. CEM cells, a CD4+ cell line, were grown in RPMI-1640 medium (Gibco) supplemented with a 10% fetal calf serum and were then treated with polybrene (2 μg/ml). An 80 μl volume of medium containing 1×10^4 cells was dispensed into each well of the tissue culture plate. To each well was added a 100 μl volume of test compound dissolved in tissue culture medium (or medium without test compound as a control) to achieve the desired final concentration and the cells were incubated at 37° C. for 1 hour. A frozen culture of HIV-1 was diluted in culture medium to a concentration of 5×104 TCID50 per ml (TCID50=the dose of virus that infects 50% of cells in tissue culture), and a 20 μL volume of the virus sample (containing 1000 TCID50 of virus) was added to wells containing test compound and to wells containing only medium (infected control cells). Several wells received culture medium without virus (uninfected control cells). Likewise, the intrinsic toxicity of the test compound was determined by adding medium without virus to several wells containing test compound. In summary, the tissue culture plates contained the following experiments: In experiments 2 and 4 the final concentrations of test compounds were 1, 10, 100 and 500 μg/ml. Either azidothymidine (AZT) or dideoxyinosine (ddI) was included as a positive drug control. […] DMSO was added to all control wells at an appropriate concentration. Following the addition of virus, cells were incubated at 37° C. in a humidified, 5% CO2 atmosphere for 7 days. Test compounds could be added on days 0, 2 and 5 if desired. […] The absorbance at 590 nm was determined for each sample using a Molecular Devices microplate reader. Absorbance values for each set of wells is compared to assess viral control infection, uninfected control cell response as well as test compound by cytotoxicity and antiviral efficacy.

IC50 (HIV protease): 13 nM
EC50 (HIV-1 in CEM cells): 91 nM
SMILES: CC[C@H](C)[C@H](NC(=O)CNC)C(=O)N[C@@H](Cc1ccccc1)[C@H](O)CN(CCC(C)C)C(=O)NC(C)(C)C [Example 4, (2R,3S)-3-(N-methylaminoacetyl-L-isoleucinyl) amido-1-[N-isoamyl-N-(tert-butylcarbamoyl)]amino-4-phenyl-2-butanol]
TD50 (CEM cells): 55,000

IC50 (HIV protease): 14 nM
EC50 (HIV-1 in CEM cells): 0.034 µg/mL
SMILES: CC(C)CCN(C[C@@H](O)[C@H](Cc1ccccc1)NC(=O)[C@@H](NC(=O)[C@H](C)N(C)C(=O)OCc1ccccc1)C(C)(C)C)C(=O)NC(C)(C)C [Example 13, (2R, 3S)-3-(N-benzyloxycarbonyl-N-methyl-L-alaninyl-L-tert-butylglycinyl)amino-1-[N-isoamyl-N-(tert-butylcarbamoyl)]amino-4-phenyl-2-butanol]

IC50 (HIV protease): 8 nM
EC50 (HIV-1 in CEM cells): 0.096 µg/mL
SMILES: CN[C@@H](C)C(=O)N[C@H](C(=O)N[C@@H](Cc1ccccc1)[C@H](O)CN(CCC(C)C)C(=O)NC(C)(C)C)C(C)(C)C [Example 14, (2R, 3S)-3-(N-methyl-L-alaninyl-L-tert-butylglycinyl)amino-1-[N-isoamyl-N-(tert-butylcarbamoyl)]amino-4-phenyl-2-butanol]

IC50 (HIV protease): 10 nM
EC50 (HIV-1 in CEM cells): 0.038 µg/mL
SMILES: CC(C)CCN(C[C@@H](O)[C@H](Cc1ccccc1)NC(=O)[C@@H](NC(=O)CN)C(C)(C)C)C(=O)NC(C)(C)C [Example 18, (2R, 3S)-3-(glycinyl-L-tert-butylglycinyl)amino-1-[N-isoamyl-N-(tert-butylcarbamoyl)]amino-4-phenyl-2-butanol Hydrochloride Salt]

The next lines start with the compound.

SMILES: CC(C)CCN(C[C@@H](O)[C@H](Cc1ccccc1)NC(=O)[C@@H](NC(=O)CN(C)C)C(C)(C)C)C(=O)NC(C)(C)C [Example 1, Butaneamide, 2-[(N,N-dimethylaminoacetyl)amino]-N-[3-[[[(1,1-dimethylethyl)amino]carbonyl](3-methylbutyl)amino]-2-hydroxy-1-(phenylmethyl)propyl]-3,3-dimethyl-,[1S-[1R*(R*), 2S*]]-]
metabolite found in blood extract compared with synthesized metabolite standard [1]: corresponding spectra and chromatogram from a standard of the synthesized metabolite can be favorably compared
IC50 (HIV protease): 10 nM
EC50 (HIV-1 in CEM cells): 58 nM
TD50 (CEM cells): 45,000

SMILES: CNCC(=O)N[C@H](C(=O)N[C@@H](Cc1ccccc1)[C@H](O)CN(CCC(C)C)C(=O)NC(C)(C)C)C(C)(C)C [Example 2, (2R, 3S)-3(N-methylaminoacetyl-L-tert-butylglycinyl) amino-2-hydroxy-4-phenyl-1-[N-(3-methylbutyl)-N-[(1,1-dimethylethyl)amino]carbonyl]aminobutane]
IC50 (HIV protease): 6 nM
EC50 (HIV-1 in CEM cells): 22 nM
TD50 (CEM cells): 45,000

SMILES: CC[C@H](C)[C@H](NC(=O)CN(C)C)C(=O)N[C@@H](Cc1ccccc1)[C@H](O)CN(CCC(C)C)C(=O)NC(C)(C)C [Example 3, (2R,3S)-3-(N,N-dimethylaminoacetyl-L-isoleucinyl)amido-1-[N-isoamyl-N-(tert-butylcarbamoyl)]amino-4-phenyl-2-butanol]
IC50 (HIV protease): 14 nM
EC50 (HIV-1 in CEM cells): 66 nM

SMILES: CN[C@H](C)C(=O)N[C@H](C(=O)N[C@@H](Cc1ccccc1)[C@H](O)CN(CCC(C)C)C(=O)NC(C)(C)C)C(C)(C)C [Example 16, (2R, 3S)-3-(N-methyl-D-alaninyl-L-tert-butylglycinyl)amino-1-[N-isoamyl-N-(tert-butylcarbamoyl)]amino-4-phenyl-2-butanol]
IC50 (HIV protease): 18 nM
EC50 (HIV-1 in CEM cells): 0.059 µg/mL
